Experimental data published in patent publication US9415035B2, “Compositions containing omega-3 oil with an anti-inflammatory agent and uses thereof” (Maine Natural Health Company, Inc., priority 2010, dated 2016).

System: companion animals (cats and dogs)
Assay: Companion animal mobility, further addition of glucosamine
Assay type: in vivo
Design: dose or concentration left out as unconfirmed
Conditions: glucosamine added to OmegaMaine omega-3 oil; data not shown
Description: Cats (n=5) were given 2.5 mL (½ teaspoon) of OmegaMaine liquid omega-3 oil by adding directly to their food. Dogs (n=5) were given 5 mL (1 teaspoon) of OmegaMaine omega-3 oil by adding directly to their food. For reference, 5 mL of OmegaMaine omega-3 oil contains, minimally, 800 mg of EPA, and, minimally, 750 mg of DHA. Animals were scored on a scale of 1 to 10, where 10 was behavior like a kitten or a puppy and 1 was severe immobility. All animals in the test group average 8 years of age. Animals were evaluated prior to treatment and 2 weeks after daily treatment with OmegaMaine omega-3 oil (Table 4).

SMILES: N[C@H]1C(O)O[C@H](CO)[C@@H](O)[C@@H]1O (stereo partly shown) [glucosamine]
- therapeutic benefit on mobility: additional therapeutic benefit
